Reference: patent publication US20240407371A1, “METHOD FOR THE KILLING, INACTIVATING, OR INHIBITING OF HARMFUL BLUE-GREEN ALGAE OR ALGAE CAPABLE OF CAUSING HARMFUL ALGAL BLOOM (HAB)” (priority 2021, published 2024)

Test system: Saprolegnia diclina
Experiment: Atlantic salmon eggs challenged with Saprolegnia diclina trojan eggs, immersion baths
Format: in vivo, Atlantic salmon (Salmo solar L.) eggs
Settings: 1665 ppm, 15 min bath daily

C=O [Formalin]
signs of saprolegniosis: did not suffer any sign of saprolegniosis
Average Number of Eggs Entangled (Treatment E, 10 days): 0.00
Average Percent Eggs Entangled (Treatment E, 10 days): 0.00
